Values after ≈ are worked out from the molar mass of the structure shown. Like-named read-outs stand apart in the source and are kept apart here.
Key:
[1] = tested on: Mycobacterium tuberculosis; experiment: microbe, parasite or virus in culture; format: cell-based; conditions: 99% (2 log) inhibition
[2] = tested on: BCG (Bacillus Calmette-Guerin, an attenuated Mycobacterium bovis); experiment: microbe, parasite or virus in culture; format: cell-based; conditions: Mycobacterium tuberculosis variant bovis BCG, pH 5.8, pH 5.8
Mycobacterium kansasii = experiment: microbe, parasite or virus in culture; format: cell-based; conditions: 99% (2 log) inhibition
[3] = tested on: Mycobacterium tuberculosis H37RV; conditions: cited from earlier work
other mycobacteria = conditions: background statement; cited from earlier work
[4] = background statement; cited from earlier work
[5] = tested on: Mycobacterium tuberculosis; conditions: background statement; cited from earlier work
M. bovis = conditions: cited from earlier work
tuberculosis = conditions: applied subcutaneously; cited from earlier work
[6] = Mycobacterium tuberculosis, pH 5.8, M. tb. BUR, read-out: MIC
[7] = Mycobacterium tuberculosis, pH 5.8, M. tb. CES, read-out: MIC
[8] = Mycobacterium tuberculosis, pH 5.8, M. tb. DOL, read-out: MIC
[9] = Mycobacterium tuberculosis, pH 5.8, M. tb. DOU, read-out: MIC
[10] = Mycobacterium tuberculosis, pH 5.8, M. tb. DUB, read-out: MIC
[11] = Mycobacterium tuberculosis, pH 5.8, M. tb. GLA, read-out: MIC
[12] = Mycobacterium tuberculosis, pH 5.8, M. tb. ING, read-out: MIC
[13] = Mycobacterium tuberculosis, pH 5.8, M. tb. LFL, read-out: MIC
[14] = Mycobacterium tuberculosis, pH 5.8, M. tb. MCQ, read-out: MIC
[15] = Mycobacterium tuberculosis, pH 5.8, M. tb. SMA, read-out: MIC
[16] = Mycobacterium tuberculosis, pH 5.8, M. tb. WOO, read-out: MIC
[17] = Mycobacterium tuberculosis, pH 5.8, M. tb. BAK, read-out: MIC

Compound: C=CCOC(=O)c1cnccn1 [Allyl Pyrazinoate]
- MIC ([1]; M. tb. BAK, pH 5.8): 3.12 µg/mL (≈ 19 µM)
- MIC [1, 6]: 6.25 µg/mL (≈ 38.1 µM)
- MIC [1, 7]: ≤ 3.12 µg/mL
- MIC [1, 8]: ≤ 3.12 µg/mL
- MIC [1, 9]: 3.12 µg/mL (≈ 19 µM)
- MIC [1, 10]: 6.25 µg/mL (≈ 38.1 µM)
- MIC [1, 11]: 6.25 µg/mL (≈ 38.1 µM)
- MIC [1, 12]: 3.12 µg/mL (≈ 19 µM)
- MIC [1, 13]: 3.12 µg/mL (≈ 19 µM)
- MIC [1, 14]: ≤ 3.12 µg/mL
- MIC [1, 15]: 3.12 µg/mL (≈ 19 µM)
- MIC [1, 16]: 6.25 µg/mL (≈ 38.1 µM)
- MIC [2]: 100 µg/mL (≈ 609 µM)
- MIC (Mycobacterium kansasii; pH 5.8, M. kans. SCH): 6.25 µg/mL (≈ 38.1 µM)
- MIC (Mycobacterium kansasii; pH 5.8, M. kans. SWK): 6.25 µg/mL (≈ 38.1 µM)

Compound: CN(C)CCOC(=O)c1cnccn1 [N,N-dimethyl-2-aminoethyl pyrazinoate]
- in vitro activity against Mycobacterium tuberculosis H37RV [3]: active

Compound: CCCOC(=O)c1cnccn1 [n-Propyl Pyrazinoate]
- MIC [1, 17]: ≤ 3.12 µg/mL
- MIC [1, 6]: ≤ 3.12 µg/mL
- MIC [1, 7]: ≤ 3.12 µg/mL
- MIC [1, 8]: ≤ 3.12 µg/mL
- MIC [1, 9]: ≤ 3.12 µg/mL
- MIC [1, 10]: ≤ 3.12 µg/mL
- MIC [1, 11]: 6.25 µg/mL (≈ 37.6 µM)
- MIC [1, 12]: ≤ 3.12 µg/mL
- MIC [1, 13]: 6.25 µg/mL (≈ 37.6 µM)
- MIC [1, 14]: ≤ 3.12 µg/mL
- MIC [1, 15]: ≤ 3.12 µg/mL
- MIC [2]: > 200 µg/mL
- MIC (Mycobacterium kansasii; pH 5.8, M. kans. SCH): 12.5 µg/mL (≈ 75.2 µM)
- MIC (Mycobacterium kansasii; pH 5.8, M. kans. SWK): 6.25 µg/mL (≈ 37.6 µM)

Compound: Cc1ccc(OC(=O)c2cnccn2)cc1 [p-Tolyl Pyrazinoate]
- MIC ([1]; M. tb. DOU, pH 5.8): 25 µg/mL (≈ 117 µM)
- MIC [1, 17]: 12.5 µg/mL (≈ 58.4 µM)
- MIC [1, 6]: 12.5 µg/mL (≈ 58.4 µM)
- MIC [1, 7]: 12.5 µg/mL (≈ 58.4 µM)
- MIC [1, 8]: 6.25 µg/mL (≈ 29.2 µM)
- MIC [1, 10]: 25 µg/mL (≈ 117 µM)
- MIC [1, 11]: 6.25 µg/mL (≈ 29.2 µM)
- MIC [1, 12]: 25 µg/mL (≈ 117 µM)
- MIC [1, 13]: 12.5 µg/mL (≈ 58.4 µM)
- MIC [1, 14]: 6.25 µg/mL (≈ 29.2 µM)
- MIC [1, 15]: 25 µg/mL (≈ 117 µM)
- MIC [1, 16]: 25 µg/mL (≈ 117 µM)
- MIC [2]: 25 µg/mL (≈ 117 µM)
- MIC (Mycobacterium kansasii; pH 5.8, M. kans. SCH): 12.5 µg/mL (≈ 58.4 µM)
- MIC (Mycobacterium kansasii; pH 5.8, M. kans. SWK): 12.5 µg/mL (≈ 58.4 µM)

Compound: NC(=O)c1cnccn1 [pyrazinamide]
- activity against other mycobacteria (other mycobacteria): not active
- hepatotoxicity [4]: hepatotoxicity
- activity against M. tuberculosis [5]: only active against Mycobacterium (M.) tuberculosis
- MIC [2]: > 200 µg/mL
- activity against M. bovis (M. bovis): not active

Compound: O=C(OCC(F)(F)F)c1cnccn1 [β, β, β-Trifluoroethyl Pyrazinoate]
- MIC [1, 17]: 25 µg/mL (≈ 121 µM)
- MIC [1, 6]: 25 µg/mL (≈ 121 µM)
- MIC [1, 7]: 12.5 µg/mL (≈ 60.6 µM)
- MIC [1, 8]: 25 µg/mL (≈ 121 µM)
- MIC [1, 9]: 100 µg/mL (≈ 485 µM)
- MIC [1, 10]: 25 µg/mL (≈ 121 µM)
- MIC [1, 11]: 12.5 µg/mL (≈ 60.6 µM)
- MIC [1, 12]: 25 µg/mL (≈ 121 µM)
- MIC [1, 13]: 50 µg/mL (≈ 243 µM)
- MIC [1, 14]: 25 µg/mL (≈ 121 µM)
- MIC [1, 15]: 25 µg/mL (≈ 121 µM)
- MIC [1, 16]: 25 µg/mL (≈ 121 µM)
- MIC [2]: 200 µg/mL (≈ 970 µM)
- MIC (Mycobacterium kansasii; pH 5.8, M. kans. SCH): 100 µg/mL (≈ 485 µM)
- MIC (Mycobacterium kansasii; pH 5.8, M. kans. SWK): 200 µg/mL (≈ 970 µM)

Compound: Isopropyl thiopyrazinoate
- activity in a standardized mouse test (tuberculosis): exhibited activity
